From patent US20020035038A1, “Fungicidal combinations comprising thieno[2,3-d]pyrimidin-4-one” (priority 1998, published 2002)

Tested on: Erysiphe graminis f.sp. hordei
Experiment: Leaf-disc-test, efficacy against Erysiphe graminis f.sp. hordei on barley (Example B-2 c)
Format: in vivo
Conditions: single active ingredient, curative application 2 days after inoculation, barley leaf segments, infection in control: 68%
Text: A synergistic effect exists whenever the action of an active ingredient combination is greater than the sum of the actions of the individual components. The action to be expected E for a given active ingredient combination obeys the so-called COLBY formula and can be calculated as follows (COLBY, S. R. “Calculating synergistic and antagonistic responses of herbicide combination”. Weeds, Vol. 15, pages 20-22; 1967): According to Colby, the expected (additive) action of active ingredients I+II using p+q ppm of active ingredient is [formula] If the action actually observed (O) is greater than the expected action (E), then the action of the combination is superadditive, i.e. there is a synergistic effect. Efficacy Against Erysiphe graminis f.sp. hordei on Barley c) Leaf-disc-test Barley plants, cv. “Hasso” were cultivated under greenhouse conditions at 20° C. in TKS-1 standard soil for 10 days. Leaf segments with a length of 10 mm were cut out of the primary leaves and were placed with the upper side up in multiple well plates (24 wells per plate). Each well contains 2 ml of 0.2% water agar+35 ppm benzimidazole. The fungicide treatment was carried out 2 days after inoculation (curative-application) by a total volume of 400 μl that were sprayed with an “air brush” on 4 leaf segments meaning 4 replicates. The inoculated leaf segments were incubated for 1 week in an incubation chamber by 18° C., the first two days in the dark, and the five next days by 12 hours light. After the incubation period, the % leaf attack was estimated with the help of a binocular and the % activity was calculated relative to the check.

Row | SMILES | % activity observed (conc. 0.0025 %) | % activity observed (conc. 0.01 %) | % activity observed (conc. 0.025 %)
1 | CC(C1CC1)C(O)(Cn1cncn1)c1ccc(Cl)cc1 (stereo not drawn) [cyproconazole] | 36% |  | 
2 | CC1COC(Cn2cncn2)(c2ccc(Oc3ccc(Cl)cc3)cc2Cl)O1 (stereo not drawn) [difenoconazole] |  | 0% | 41%
